Measurements published in patent US20090023775A1, “1-[2-(4-BENZYL-4-HYDROXY-PIPERIDIN-1 -YL )-ETHYL]-3-(2-METHYL-QUINOLIN- 4-YL)- UREA AS CRYSTALLINE SULFATE SALT” (Actelion Pharmaceuticals Ltd., priority 2004, published 2009).

Key:
[1] = Dynamic vapor sorption (DVS), gravimetric measurement under controlled relative humidity; assay type: physicochemical
Procedure: X-ray diffraction patterns (XRD) were recorded on a Bruker D5000, using a Cu-Kalpha (1.5418 Å) source, a 40 kV -30 mA generator, in a range of 3 et 40° (2theta). DVS is performed as gravimetric measurement (10-30 mg of sample), at a given temperature, under controlled relative humidity. Measurements are performed on a SMS (Surface Measurement Systems) DVS 1000. First, the sample is dried (0% RH) under dry nitrogen at the experiment temperature. Then a cycle of relative humidity (RH) is applied to the sample (generally increase by steps e.g. 20, 40, 60 and 80% RH and decrease to 0% RH by the same steps). The duration of each step of RH is sufficient to reach a weight equilibrium.
Table 2 summarizes the results of two cycles (0 to 85% relative humidity) in a DVS measurement (40° C.) of 1-[2-(4-benzyl-4-hydroxy-piperidin-1-yl)-ethyl]-3-(2-methyl-quinolin-4-yl)-urea sulfate trihydrate described in Example 1.
Table 4 summarizes the results of three cycles (0 to 85% relative humidity) in a DVS measurement (25° C.) of 1-[2-(4-benzyl-4-hydroxy-piperidin-1-yl)-ethyl]-3-(2-methyl-quinolin-4-yl)-urea sulfate trihydrate described in Example 2.

[2] = Behaviour of the free base at higher temperature and higher humidity; assay type: physicochemical
Excerpt: Therefore, the said compound of formula I as free base is not suitable as a pharmaceutical product since it is not easy to handle in pharmaceutical preparations. In addition, large scale production and storage of the said compound of formula I causes problems due to the properties mentioned above.

[3] = target: T1, urotensin II receptor (Homo sapiens, UniProt Q9UKP6); settings: Clozel et al., J. Pharmcol. Exp. Ther. 2004, 311, 204-212; cited from earlier work
T1 sequence (Q9UKP6 1-389): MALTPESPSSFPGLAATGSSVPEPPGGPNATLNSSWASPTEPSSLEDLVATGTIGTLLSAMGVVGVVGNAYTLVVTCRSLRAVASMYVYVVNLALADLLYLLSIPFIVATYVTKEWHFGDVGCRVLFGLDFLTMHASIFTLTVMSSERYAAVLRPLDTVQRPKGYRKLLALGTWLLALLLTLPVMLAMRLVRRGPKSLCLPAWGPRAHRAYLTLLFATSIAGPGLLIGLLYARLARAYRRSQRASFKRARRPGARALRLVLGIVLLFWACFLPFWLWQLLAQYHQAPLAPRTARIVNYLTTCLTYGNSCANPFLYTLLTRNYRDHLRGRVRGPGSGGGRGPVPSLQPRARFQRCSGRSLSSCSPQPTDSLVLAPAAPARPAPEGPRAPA

[4] = DVS 40° C., Cycle 1, target RH 0.0%
[5] = DVS 40° C., Cycle 1, target RH 20.0%
[6] = DVS 40° C., Cycle 1, target RH 40.0%
[7] = DVS 40° C., Cycle 1, target RH 60.0%
[8] = DVS 40° C., Cycle 1, target RH 85.0%
[9] = DVS 40° C., Cycle 2, target RH 0.0%
[10] = DVS 40° C., Cycle 2, target RH 20.0%
[11] = DVS 40° C., Cycle 2, target RH 40.0%
[12] = DVS 40° C., Cycle 2, target RH 60.0%
[13] = DVS 40° C., Cycle 2, target RH 85.0%
[14] = DVS 25° C., Cycle 1, target RH 0.0%
[15] = DVS 25° C., Cycle 1, target RH 20.0%
[16] = DVS 25° C., Cycle 1, target RH 40.0%
[17] = DVS 25° C., Cycle 1, target RH 60.0%
[18] = DVS 25° C., Cycle 1, target RH 85.0%
[19] = DVS 25° C., Cycle 2, target RH 0.0%
[20] = DVS 25° C., Cycle 2, target RH 20.0%
[21] = DVS 25° C., Cycle 2, target RH 40.0%
[22] = DVS 25° C., Cycle 2, target RH 60.0%
[23] = DVS 25° C., Cycle 2, target RH 85.0%
[24] = DVS 25° C., Cycle 3, target RH 0.0%
[25] = DVS 25° C., Cycle 3, target RH 85.0%
[26] = higher temperature and higher humidity

Cc1cc(NC(=O)NCCN2CCC(O)(Cc3ccccc3)CC2)c2ccccc2n1.O.O.O.O=S(=O)(O)O [Example 1, 1-[2-(4-Benzyl-4-hydroxy-piperidin-1-yl)-ethyl]-3-(2-methyl-quinolin-4-yl)-urea Sulfate Trihydrate]
Change In Mass (%) Desorption [1, 4]: −0.02%
Change In Mass (%) Sorption [1, 4]: 0.00%
Change In Mass (%) Desorption [1, 5]: 9.97%
Change In Mass (%) Hysteresis [1, 5]: 0.26%
Change In Mass (%) Sorption [1, 5]: 9.71%
Change In Mass (%) Desorption [1, 6]: 10.26%
Change In Mass (%) Hysteresis [1, 6]: 0.03%
Change In Mass (%) Sorption [1, 6]: 10.23%
Change In Mass (%) Desorption [1, 7]: 10.40%
Change In Mass (%) Hysteresis [1, 7]: −0.02%
Change In Mass (%) Sorption [1, 7]: 10.42%
Change In Mass (%) Desorption [1, 8]: 10.68%
Change In Mass (%) Sorption [1, 8]: 10.68%
Change In Mass (%) Desorption [1, 9]: −0.02%
Change In Mass (%) Sorption [1, 9]: −0.02%
Change In Mass (%) Desorption [1, 10]: 9.98%
Change In Mass (%) Hysteresis [1, 10]: 0.17%
Change In Mass (%) Sorption [1, 10]: 9.81%
Change In Mass (%) Desorption [1, 11]: 10.28%
Change In Mass (%) Hysteresis [1, 11]: 0.02%
Change In Mass (%) Sorption [1, 11]: 10.26%
Change In Mass (%) Desorption [1, 12]: 10.42%
Change In Mass (%) Hysteresis [1, 12]: 0.01%
Change In Mass (%) Sorption [1, 12]: 10.42%
Change In Mass (%) Desorption [1, 13]: 10.68%
Change In Mass (%) Sorption [1, 13]: 10.68%

Cc1cc(NC(=O)NCCN2CCC(O)(Cc3ccccc3)CC2)c2ccccc2n1.O.O.O.O=S(=O)(O)O [Example 2, 1-[2-(4-Benzyl-4-hydroxy-piperidin-1-yl)-ethyl]-3-(2-methyl-quinolin-4-yl)-urea Sulfate Trihydrate]
Change In Mass (%) Desorption [1, 14]: −0.01%
Change In Mass (%) Sorption [1, 14]: 0.00%
Change In Mass (%) Desorption [1, 15]: 11.94%
Change In Mass (%) Hysteresis [1, 15]: 0.57%
Change In Mass (%) Sorption [1, 15]: 11.38%
Change In Mass (%) Desorption [1, 16]: 12.31%
Change In Mass (%) Hysteresis [1, 16]: 0.32%
Change In Mass (%) Sorption [1, 16]: 12.00%
Change In Mass (%) Desorption [1, 17]: 12.49%
Change In Mass (%) Hysteresis [1, 17]: 0.08%
Change In Mass (%) Sorption [1, 17]: 12.41%
Change In Mass (%) Desorption [1, 18]: 12.70%
Change In Mass (%) Sorption [1, 18]: 12.70%
Change In Mass (%) Desorption [1, 19]: 0.00%
Change In Mass (%) Sorption [1, 19]: −0.01%
Change In Mass (%) Desorption [1, 20]: 11.95%
Change In Mass (%) Hysteresis [1, 20]: 0.43%
Change In Mass (%) Sorption [1, 20]: 11.52%
Change In Mass (%) Desorption [1, 21]: 12.32%
Change In Mass (%) Hysteresis [1, 21]: 0.25%
Change In Mass (%) Sorption [1, 21]: 12.06%
Change In Mass (%) Desorption [1, 22]: 12.49%
Change In Mass (%) Hysteresis [1, 22]: 0.07%
Change In Mass (%) Sorption [1, 22]: 12.41%
Change In Mass (%) Desorption [1, 23]: 12.70%
Change In Mass (%) Sorption [1, 23]: 12.70%
Change In Mass (%) Desorption [1, 24]: 0.08%
Change In Mass (%) Sorption [1, 24]: 0.00%
Change In Mass (%) Sorption ([1]; DVS 25° C., Cycle 3, target RH 20.0%): 11.55%
Change In Mass (%) Sorption ([1]; DVS 25° C., Cycle 3, target RH 40.0%): 12.07%
Change In Mass (%) Sorption ([1]; DVS 25° C., Cycle 3, target RH 60.0%): 12.40%
Change In Mass (%) Desorption [1, 25]: 12.69%
Change In Mass (%) Sorption [1, 25]: 12.69%

Cc1cc(NC(=O)NCCN2CCC(O)(Cc3ccccc3)CC2)c2ccccc2n1 [formula I, 1-[2-(4-Benzyl-4-hydroxy-piperidin-1-yl)-ethyl]-3-(2-methyl-quinolin-4-yl)-urea]
hygroscopicity [2]: hygroscopic
agglomeration [2, 26]: agglomerates to a substance cake
colour stability [2, 26]: its colour changes at higher temperature and higher humidity
urotensin II receptor antagonist activity [3]: potent urotensin II receptor antagonist
